Test results as given in BindingDB's records for doi:10.7270/Q2736T2X (n/a, 1995).

Experiments:
[1] = target: Muscarinic acetylcholine receptor M1/M2/M3/M4/M5; test: Binding affinity towards muscarinic receptor using [3H]cis-methyldioxolane (CMD) to label agonist sites in membrane preparations from rat neocortex
[2] = target: Muscarinic acetylcholine receptor M1/M2/M3/M4/M5; test: Binding affinity towards muscarinic receptor using [3H]quinuclidinyl benzilate (QNB) to label antagonist sites in membrane preparations from rat neocortex

## O=[N+]([O-])c1cccc(C#CCO[N-][C+]2CN3CCC2C3)c1 (configuration not stated) [1-Aza-bicyclo[2.2.1]heptan-3-one O-[3-(3-nitro-phenyl)-prop-2-ynyl]-oxime]
[1]
  IC50: 0.028 µM
[2]
  IC50: 6.4 µM
